The values that follow come from US11229623B2 (GlaxoSmithKline Intellectual Property (No.2) Limited, priority 2016, dated 2022).

In one assay the target is T1, human TRPV4 (Homo sapiens, UniProt Q9HBA0).
T1 construct: expressed in transfected cells; host or cells: BHK/AC9 cells transduced with BacMam virus
T1 sequence (Q9HBA0 whole entry): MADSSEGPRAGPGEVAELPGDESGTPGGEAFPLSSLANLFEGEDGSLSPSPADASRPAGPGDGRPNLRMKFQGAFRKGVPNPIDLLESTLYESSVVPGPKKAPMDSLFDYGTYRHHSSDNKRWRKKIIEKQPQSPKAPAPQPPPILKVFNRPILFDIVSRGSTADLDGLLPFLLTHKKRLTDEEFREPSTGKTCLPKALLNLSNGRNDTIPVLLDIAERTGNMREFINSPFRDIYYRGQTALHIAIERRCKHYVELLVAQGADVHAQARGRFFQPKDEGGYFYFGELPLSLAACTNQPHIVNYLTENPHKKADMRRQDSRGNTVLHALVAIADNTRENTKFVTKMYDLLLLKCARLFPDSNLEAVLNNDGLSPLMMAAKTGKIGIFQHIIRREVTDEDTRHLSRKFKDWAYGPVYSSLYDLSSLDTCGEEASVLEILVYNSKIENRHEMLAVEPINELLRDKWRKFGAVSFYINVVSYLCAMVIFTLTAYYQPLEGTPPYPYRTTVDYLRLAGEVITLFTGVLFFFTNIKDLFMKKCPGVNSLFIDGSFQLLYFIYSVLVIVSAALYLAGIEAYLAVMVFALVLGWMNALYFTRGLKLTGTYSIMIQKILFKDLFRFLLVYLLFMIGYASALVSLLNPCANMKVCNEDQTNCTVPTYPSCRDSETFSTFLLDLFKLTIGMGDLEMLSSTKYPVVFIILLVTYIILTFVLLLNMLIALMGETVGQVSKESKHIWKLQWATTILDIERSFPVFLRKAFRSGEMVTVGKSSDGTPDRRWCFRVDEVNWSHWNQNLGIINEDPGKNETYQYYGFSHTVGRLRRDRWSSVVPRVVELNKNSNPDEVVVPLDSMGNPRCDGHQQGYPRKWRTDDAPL
The assay can be described thus: FLIPR assay for hTRPV4 expressed in BHK cells: inhibition of Agonist Compound-induced calcium signal. The assay is classed as cell-based. To be noted: hTRPV4 FLIPR assay; average in at least one set of experimental runs; read-out: average IC50. The procedure:
FLIPR Assay for hTRPV4 Expressed in BHK Cells:
TRPV4 channel activation results in an influx of divalent and monovalent cations including calcium. The resulting changes in intracellular calcium were monitored using a calcium specific fluorescent dye Fluo-4 (MDS Analytical Technologies). BHK/AC9 cells transduced with BacMam virus expressing the human TRPV4 gene at a MOI of 78 were plated in a 384 well poly-D lysine coated plate (15,000 cells/well in 50 μL culture medium containing DMEM/F12 with 15 mM HEPES, 10% FBS, 1% Penicillin-Streptomycin and 1% L-glutamine). Cells were incubated for 24 hours at 37° C. and 5% CO2. Culture medium was then aspirated using a Tecan plate-washer and replaced with 20 μL/well of dye loading buffer: HBSS, 500 μM Brilliant Black (MDS Analytical Technologies), and 2 μM Fluo-4 AM. Dye loaded plates were then incubated in the dark at room temperature for 1-1.5 hours.
A word on the IC50: it is the point on the concentration scale where inhibition reaches its midpoint. Take `N#Cc1cc(C(F)(F)F)ccc1S(=O)(=O)N1C[C@H](Oc2ccc(Cl)cc2)[C@](O)(CO)C1` [Example 6, 2-(((3R,4S)-4-(4-chlorophenoxy)-3-hydroxy-3-(hydromethyl)pyrrolidin-1-yl)sulfonyl)-5-(trifluoromethyl)benzonitrile]: the IC50 was determined as 3 nM.

The same assay, now with this note: hTRPV4 in BHK/AC9 cells, FLIPR calcium signal, agonist at EC80; reported as range class; read-out: IC50.
For the compound `N#Cc1ccc(O[C@H]2CN(S(=O)(=O)c3ccc(C(F)(F)F)cc3C#N)C[C@@]2(O)CO)cc1F` [Example 1, 4-(((3S,4R)-1-((2-cyano-4-(trifluoromethyl)phenyl)sulfonyl)-4-hydroxy-4-(hydroxymethyl)pyrrolidin-3-yl)oxy)-2-fluorobenzonitrile], the IC50 lay within 0.1 to 10 nM. For `N#Cc1ccc(O[C@H]2CN(S(=O)(=O)c3ccc(Cl)cc3Cl)C[C@@]2(O)CO)cc1F` [Example 2, 4-(((3S,4R)-1-((2,4-dichlorophenyl)sulfonyl)-4-hydroxy-4-(hydroxymethyl)pyrrolidin-3-yl)oxy)-2-fluorobenzonitrile], the IC50 was 0.1 to 10 nM. Same read-out and setting: under `N#Cc1ccc(O[C@H]2CN(S(=O)(=O)c3ccc(Cl)cc3C#N)C[C@@]2(O)CO)cc1F` [Example 3, 4-(((3S,4R)-1-((4-chloro-2-cyanophenyl)sulfonyl)-4-hydroxy-4-(hydroxymethyl)pyrrolidin-3-yl)oxy)-2-fluorobenzonitrile] stands 0.1 to 10 nM. Same read-out and setting: under `O=S(=O)(c1ccc(Cl)cc1Cl)N1C[C@H](Oc2ccc(F)c(F)c2)[C@](O)(CO)C1` [Example 4, (3R,4S)-1-((2,4-dichlorophenyl)sulfonyl)-4-(3,4-difluorophenoxy)-3-(hydroxymethyl)pyrrolidin-3-ol] stands 10 to 100 nM. On the same count and under the same terms, next, `N#Cc1ccc(O[C@H]2CN(S(=O)(=O)c3ccc(C(F)(F)F)nc3)C[C@@]2(O)CO)cc1F` [Example 5, 2-fluoro-4-(((3S,4R)-4-hydroxy-4-(hydroxymethyl)-1-((6-(trifluoromethyl)pyridin-3-yl)sulfonyl)pyrrolidin-3-yl)oxy)benzonitrile]: 100 to 1000 nM; `N#Cc1cc(C(F)(F)F)ccc1S(=O)(=O)N1C[C@H](Oc2ccc(Cl)cc2)[C@](O)(CO)C1` [Example 6, 2-(((3R,4S)-4-(4-chlorophenoxy)-3-hydroxy-3-(hydromethyl)pyrrolidin-1-yl)sulfonyl)-5-(trifluoromethyl)benzonitrile]: 0.1 to 10 nM; `N#Cc1cc(C(F)(F)F)ccc1S(=O)(=O)N1C[C@H](Oc2ccc3nonc3c2)[C@](O)(CO)C1` [Example 7, 2-(((3R,4S)-4-(benzo[c][1,2,5]oxadiazol-5-yloxy)-3-hydroxy-3-(hydroxymethyl)pyrrolidin-1-yl)sulfonyl)-5-(trifluoromethyl)benzonitrile]: 0.1 to 10 nM. Consider `N#Cc1cc(Cl)ccc1S(=O)(=O)N1C[C@H](Oc2ccc(F)c(F)c2)[C@](O)(CO)C1` [Example 8, 5-chloro-2-(((3R,4S)-4-(3,4-difluorophenoxy)-3-hydroxy-3-(hydroxymethyl)pyrrolidin-1-yl)sulfonyl)benzonitrite], for which the concentration for half-maximal inhibition (IC50) is 0.1 to 10 nM. On the same count and under the same terms, next, `N#Cc1ccc(O[C@H]2CN(S(=O)(=O)c3ccc(C(F)(F)F)cc3C#N)C[C@@]2(O)CO)c(F)c1` [Example 9, 2-(((3R,4S)-4-(4-cyano-2-fluorophenoxy)-3-hydroxy-3-(hydroxymethyl)pyrrolidin-1-yl)sulfonyl)-5-(trifluoromethyl)benzonitrile]: 0.1 to 10 nM; `COc1cc(C#N)ccc1O[C@H]1CN(S(=O)(=O)c2ccc(C(F)(F)F)cc2C#N)C[C@@]1(O)CO` [Example 10, 2-(((3R,4S)-4-(4-cyano-2-methoxyphenoxy)-3-hydroxy-3-(hydroxymethyl)pyrrolidin-1-yl)sulfonyl)-5-(trifluoromethyl)benzonitrile]: 10 to 100 nM; `N#Cc1ccc(O[C@H]2CN(S(=O)(=O)c3ccc(C(F)(F)F)cc3C#N)C[C@@]2(O)CO)cc1C(F)(F)F` [Example 11, 4-(((3S,4R)-1-((2-cyano-4-(trifluoromethyl)phenyl)sulfonyl)-4-hydroxy-4-(hydroxymethyl)pyrrolidin-3-yl)oxy)-2-(trifluoromethyl)benzonitrile]: 10 to 100 nM.

With `CCOc1cc(C#N)ccc1O[C@H]1CN(S(=O)(=O)c2ccc(C(F)(F)F)cc2C#N)C[C@@]1(O)CO` [Example 12, 2-(((3R,4S)-4-(4-cyano-2-ethoxyphenoxy)-3-hydroxy-3-(hydroxymethyl)pyrrolidin-1-yl)sulfonyl)-5-(trifluoromethyl)benzonitrile], the IC50 lay in the range of 0.1 to 10 nM. Take `N#Cc1ncc(O[C@H]2CN(S(=O)(=O)c3ccc(C(F)(F)F)cc3C#N)C[C@@]2(O)CO)cn1` [Example 13, 5-(((3S,4R)-1-((2-cyano-4-(trifluoromethyl)phenyl)sulfonyl)-4-hydroxy-4-(hydroxymethyl)pyrrolidin-3-yl)oxy)pyrimidine-2-carbonitrile]: the IC50 is 10 to 100 nM. The same measure, in the same setting: next, `N#Cc1ccc(O[C@H]2CN(S(=O)(=O)c3ccc(C(F)(F)F)cc3C#N)C[C@@]2(O)CO)c(Cl)c1` [Example 14, 2-(((3R,4S)-4-(2-chloro-4-cyanophenoxy)-3-hydroxy-3-(hydroxymethyl)pyrrolidin-1-yl)sulfonyl)-5-(trifluoromethyl)benzonitrile]: 0.1 to 10 nM; `N#Cc1cc(C(F)(F)F)ccc1S(=O)(=O)N1C[C@H](Oc2ccc(C#N)c(F)c2F)[C@](O)(CO)C1` [Example 15, 4-(((3S,4R)-1-((2-cyano-4-(trifluoromethyl)phenyl)sulfonyl)-4-hydroxy-4-(hydroxymethyl)pyrrolidin-3-yl)oxy)-2,3-difluorobenzonitrile]: 0.1 to 10 nM. Turning to `Cc1cc(C#N)ccc1O[C@H]1CN(S(=O)(=O)c2ccc(C(F)(F)F)cc2C#N)C[C@@]1(O)CO` [Example 16, 2-(((3R,4S)-4-(4-cyano-2-methylphenoxy)-3-hydroxy-3-(hydroxymethyl)pyrrolidin-1-yl)sulfonyl)-5-(trifluoromethyl)benzonitrile], the concentration for half-maximal inhibition (IC50) was 0.1 to 10 nM. The same measure, in the same setting: next, `N#Cc1ccc(O[C@H]2CN(S(=O)(=O)c3ccc(C(F)(F)F)cc3C#N)C[C@@]2(O)CO)c(C(F)(F)F)c1` [Example 17, 2-(((3R,4S)-4-(4-cyano-2-(trifluoromethyl)phenoxy)-3-hydroxy-3-(hydroxymethyl)pyrrolidin-1-yl)sulfonyl)-5-(trifluoromethyl)benzonitrile]: 0.1 to 10 nM. For the compound `N#Cc1ccc2cc(O[C@H]3CN(S(=O)(=O)c4ccc(C(F)(F)F)cc4C#N)C[C@@]3(O)CO)ccc2c1` [Example 18, 6-(((3S,4R)-1-((2-cyano-4-(trifluoromethyl)phenyl)sulfonyl)-4-hydroxy-4-(hydroxymethyl)pyrrolidin-3-yl)oxy)-2-naphthonitrile], the 50% inhibitory concentration (IC50) lay in the range of 10 to 100 nM. In the case of `N#Cc1cc(F)c(O[C@H]2CN(S(=O)(=O)c3ccc(C(F)(F)F)cc3C#N)C[C@@]2(O)CO)cc1F` [Example 19, 4-(((3S,4R)-1-((2-cyano-4-(trifluoromethyl)phenyl)sulfonyl)-4-hydroxy-4-(hydroxymethyl)pyrrolidin-3-yl)oxy)-2,5-difluorobenzonitrile], the IC50 fell in the range of 0.1 to 10 nM. The same measure, in the same setting: next, `N#Cc1cc(C(F)(F)F)ccc1S(=O)(=O)N1C[C@H](Oc2cc(F)c(C#N)c(F)c2)[C@](O)(CO)C1` [Example 20, 4-(((3S,4R)-1-((2-cyano-4-(trifluoromethyl)phenyl)sulfonyl)-4-hydroxy-4-(hydroxymethyl)pyrrolidin-3-yl)oxy)-2,6-difluorobenzonitrile]: 0.1 to 10 nM. For the compound `N#Cc1ccc(O[C@H]2CN(S(=O)(=O)c3ccc(C(F)(F)F)cc3C#N)C[C@@]2(O)CO)cc1OC(F)(F)F` [Example 21, 4-(((3S,4R)-1-((2-cyano-4-(trifluoromethyl)phenyl)sulfonyl)-4-hydroxy-4-(hydroxymethyl)pyrrolidin-3-yl)oxy)-2-(trifluoromethoxy)benzonitrile], the IC50 is 10 to 100 nM. As for `N#Cc1cc(Cl)ccc1S(=O)(=O)N1C[C@H](Oc2cc(F)c(F)c(F)c2)[C@](O)(CO)C1` [Example 22, 5-chloro-2-(((3R,4S)-3-hydroxy-3-(hydroxymethyl)-4-(3,4,5-trifluorophenoxy)pyrrolidin-1-yl)sulfonyl)benzonitrile], the IC50 fell in the range of 0.1 to 10 nM. Regarding `N#Cc1cc(Cl)ccc1S(=O)(=O)N1C[C@H](Oc2ccc(F)c(F)c2F)[C@](O)(CO)C1` [Example 23, 5-chloro-2-(((3R,4S)-3-hydroxy-3-(hydroxymethyl)-4-(2,3,4-trifluorophenoxy)pyrrolidin-1-yl)sulfonyl)benzonitrile], the IC50 is 0.1 to 10 nM. Same read-out and setting: under `N#Cc1cc(Cl)ccc1S(=O)(=O)N1C[C@H](Oc2cc(F)c(F)cc2F)[C@](O)(CO)C1` [Example 24, 5-chloro-2-(((3R,4S)-3-hydroxy-3-(hydroxymethyl)-4-(2,4,5-trifluorophenoxy)pyrrolidin-1-yl)sulfonyl)benzonitrile] stands 0.1 to 10 nM; under `N#Cc1cc(C(F)(F)F)ccc1S(=O)(=O)N1C[C@H](Oc2ccc(F)c(F)c2)[C@](O)(CO)C1` [Example 25, 2-(((3R,4S)-4-(3,4-difluorophenoxy)-3-hydroxy-3-(hydroxymethyl)pyrrolidin-1-yl)sulfonyl)-5-(trifluoromethyl)benzonitrile], 0.1 to 10 nM.

As to `N#Cc1cc(C(F)(F)F)ccc1S(=O)(=O)N1C[C@H](Oc2cc(F)c(F)c(F)c2)[C@](O)(CO)C1` [Example 26, 2-(((3R,4S)-3-hydroxy-3-(hydroxymethyl)-4-(3,4,5-trifluorophenoxy)pyrrolidin-1-yl)sulfonyl)-5-(trifluoromethyl)benzonitrile], the concentration for half-maximal inhibition (IC50) lay in the range of 10 to 100 nM. Regarding `N#Cc1cc(C(F)(F)F)ccc1S(=O)(=O)N1C[C@H](Oc2cc(F)c(F)cc2F)[C@](O)(CO)C1` [Example 27, 2-(((3R,4S)-3-hydroxy-3-(hydroxymethyl)-4-(2,4,5-trifluorophenoxy)pyrrolidin-1-yl)sulfonyl)-5-(trifluoromethyl)benzonitrile], the 50% inhibitory concentration (IC50) was in the range of 0.1 to 10 nM.
